Experiment [1] relates to HL-60 cells (human acute promyelocytic leukemia cell line). Kind of experiment: Growth-inhibiting activity against animal cells (WST-8), HL-60. The class given is cell-based. The conditions noted are these: for IC50: Homo sapiens, read-out: HL60 IC50; for cancer cell growth-inhibiting activity (in words): summary of Table 5 (HL60, K562, tsFT210), RM-T as compared with RM-A. The procedure:
(§1) HL-60 cells (human acute promyelocytic leukemia cell line) and K562 cells (human chronic myeloid leukemia cell line) were maintained in a culture medium in which RPMI1640 medium (manufactured by Invitrogen) was added with 10% fetal bovine serum (manufactured by Nichirei), 0.5% penicillin/streptomycin solution (manufactured by Invitrogen) at 37° C. under a humidified culture of 5% CO2. tsFT210 cells (mouse breast cancer cells CDC2 temperature sensitive strain) were maintained in a culture medium in which RPMI1640 medium (manufactured by Invitrogen) was added with 5% calf serum (manufactured by Hyclone) and 0.5% penicillin/streptomycin solution at 32° C. under a humidified culture of 5% CO2.
(§2) HL-60 cells and K562 cells were seeded in a 96-well plate (manufactured by IWAKI) so as to be 1.5×10^4 cells/well/100 μl. tsFT210 cells were seeded in a 96-well plate so as to be 1.6×10^4 cell/well/100 μl. Each of the agents in Table 5 was added at 0.5% (v/v). HL-60 cells and K562 cells were maintained at 37° C. under a humidified culture of 5% CO2 and tsFT210 cells were maintain at 32° C. under a humidified culture of 5% CO2. Forty eight hours after addition of the agent, 10 μl of a reagent SF solution for counting live cells (WST-8 reagent, manufactured by Nakarai tesque) was added to each well. HL-60 cells and K562 cells were maintained at 37° C. under a humidified culture of 5% CO2 for 30 minutes and tsFT210 cells were maintain at 32° C. under a humidified culture of 5% CO2 for one hour. After the reaction, absorbance at 450 nm was measured using a microplate reader (manufactured by PerkinElmer) and a cell proliferation rate was determined from the measurement value.
Background: Tetrazolium dyes change colour on reduction, which living cells bring about.

For experiment [2], the system named is K562 cells (human chronic myeloid leukemia cell line). Kind of experiment: Growth-inhibiting activity against animal cells (WST-8), K562. The experiment is classed as cell-based. The procedure:
as §1, §2

Experiment [3] has as its system tsFT210 cells (mouse breast cancer cells CDC2 temperature sensitive strain). Kind of experiment: Growth-inhibiting activity against animal cells (WST-8), tsFT210. The experiment is classed as cell-based. As for the experimental part: as §1, §2
For experiment [4], the target named is T1, Isoleucyl tRNA synthetase (Homo sapiens, UniProt P41252).
T1 construct: 10 μg protein (HT1080 cell lysate); endogenous in cells; host or cells: HT1080 cell lysate
T1 sequence (P41252 1-1262): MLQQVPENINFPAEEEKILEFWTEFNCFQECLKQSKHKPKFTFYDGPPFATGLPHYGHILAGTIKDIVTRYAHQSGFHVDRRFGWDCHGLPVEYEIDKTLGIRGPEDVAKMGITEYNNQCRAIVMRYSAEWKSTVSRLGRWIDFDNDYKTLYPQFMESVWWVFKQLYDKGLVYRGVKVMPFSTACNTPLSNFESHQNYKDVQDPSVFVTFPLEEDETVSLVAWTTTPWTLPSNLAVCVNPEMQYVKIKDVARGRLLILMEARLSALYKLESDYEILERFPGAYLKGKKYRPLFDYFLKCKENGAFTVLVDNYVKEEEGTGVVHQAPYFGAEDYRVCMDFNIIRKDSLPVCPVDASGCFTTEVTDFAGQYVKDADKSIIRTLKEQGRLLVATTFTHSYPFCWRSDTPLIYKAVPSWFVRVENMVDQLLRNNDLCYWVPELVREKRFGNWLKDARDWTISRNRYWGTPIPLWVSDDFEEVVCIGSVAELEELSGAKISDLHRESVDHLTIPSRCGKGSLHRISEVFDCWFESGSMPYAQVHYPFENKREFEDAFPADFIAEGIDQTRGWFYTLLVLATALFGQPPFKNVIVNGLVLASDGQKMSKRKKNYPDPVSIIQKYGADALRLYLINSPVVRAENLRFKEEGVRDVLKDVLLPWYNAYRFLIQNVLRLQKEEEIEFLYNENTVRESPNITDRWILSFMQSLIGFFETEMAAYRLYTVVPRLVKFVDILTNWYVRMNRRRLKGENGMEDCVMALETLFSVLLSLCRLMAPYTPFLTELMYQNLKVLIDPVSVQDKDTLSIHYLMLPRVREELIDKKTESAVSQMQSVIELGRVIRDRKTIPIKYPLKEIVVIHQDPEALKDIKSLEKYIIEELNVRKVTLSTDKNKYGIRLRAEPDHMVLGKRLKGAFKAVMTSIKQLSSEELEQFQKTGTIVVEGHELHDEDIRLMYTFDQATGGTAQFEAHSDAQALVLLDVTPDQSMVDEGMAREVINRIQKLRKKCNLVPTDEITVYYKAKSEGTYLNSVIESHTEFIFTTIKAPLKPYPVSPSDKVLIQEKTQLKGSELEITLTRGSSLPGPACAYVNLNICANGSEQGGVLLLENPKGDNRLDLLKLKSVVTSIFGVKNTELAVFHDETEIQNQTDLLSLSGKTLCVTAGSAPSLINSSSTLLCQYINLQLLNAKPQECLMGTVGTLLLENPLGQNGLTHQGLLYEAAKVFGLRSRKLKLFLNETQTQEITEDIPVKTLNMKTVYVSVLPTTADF
Kind of experiment: Inhibitory activity against isoleucyl tRNA synthetase. The conditions noted are these: for IC50: HT1080 cell lysate, [3H]isoleucine, 25° C., 20 minutes, read-out: IRS IC50 (converted). The class given is biochemical. As for the experimental part:
To a solution for enzymatic reaction [20 mM imidazole, pH 7.5, 75 mM MgCl2, 0.5 mM DTT, 1 U/ml tRNA (E. coli origin, manufactured by Sigma), 3 mM ATP, 1 μM isoleucine, 10 μCi/ml [^3H]isoleucine (manufactured by GE Healthcare), 10 μg protein (HT1080 cell lysate)], each of the agents in Table 5 was added at 1% (v/v) so as to attain a total amount of 100 μl and a reaction was carried out at 25° C. for 20 minutes. One mg/ml BSA solution (400 μl) and 10% TCA solution (500 μl) were then added thereto to terminate the reaction and left to stand at 4° C. overnight. A precipitate obtained by a centrifugal operation was transferred onto GF-C filter (manufactured by Whatman), washed three times with 5% TCA solution, followed by drying the filter. Two milliliters of aquasol-2 (manufactured by PerkinElmer) and the filter were placed in a vial and vigorously stirred, and then the amount of [^3H]isoleucine was measured by a liquid scintillation counter (manufactured by Beckman) to determine a rate of enzyme activity.

Setting [5] is: K562, 48 h, read-out: K562 IC50.
The mark [6] stands for this setting: tsFT210, 48 h, read-out: tsFT210 IC50.

Broadly, the IC50 is the concentration at which inhibition is half-maximal.

In brackets after ≈: the same amount, converted by molar mass. Where two headings read alike, the source gives them in different places.

As for `CCCC[C@@]1(OC(=O)CCC(=O)O)CC[C@]2(CC[C@H](C)[C@@H](C/C=C(C)/C=C/[C@H](O)[C@@H](C)/C=C/C(=O)O)O2)O[C@H]1/C=C/C(C)=C/C(=O)O` [RM-A, Reveromycin A], the IC50 in experiment [1] (HL-60, 48 h) is 2.7 mg/L (≈ 4.09 µM); in experiment [2] (setting [5]), 4.9 mg/L (≈ 7.42 µM); in experiment [3] (setting [6]), 8.5 mg/L (≈ 12.9 µM); in experiment [4], 9.38 nM.

On to `CCCCCC[C@@]1(OC(=O)CCC(=O)O)CC[C@]2(CC[C@H](C)[C@@H](C/C=C(C)/C=C/[C@H](O)[C@@H](C)/C=C/C(=O)O)O2)O[C@H]1/C=C/C(C)=C/C(=O)O` [RM-E], for which the IC50 in experiment [1] (HL-60, 48 h) is 1.5 mg/L (≈ 2.18 µM); in experiment [2] (setting [5]), 1.9 mg/L (≈ 2.76 µM); in experiment [3] (setting [6]), 7 mg/L (≈ 10.2 µM); in experiment [4], 4.06 nM. Further, the “cancer cell growth-inhibiting activity (in words)” value in experiment [1] is reported as “high”.

`CCCC[C@H]1CC[C@]2(CC[C@H](C)[C@@H](C/C=C(C)/C=C/[C@H](O)[C@@H](C)/C=C/C(=O)OCC)O2)O[C@H]1/C=C/C(C)=C/C(=O)O` [RM-T ethyl-ester]: the IC50 in experiment [1] (HL-60 cells, 48 hours after addition of the agent, WST-8) is 0.2 mg/L (≈ 0.349 µM); in experiment [2] (K562 cells, 48 hours after addition of the agent, WST-8, read-out: K562 IC50), 0.7 mg/L (≈ 1.22 µM); in experiment [3] (tsFT210 cells, 32° C., 48 hours after addition of the agent, WST-8, read-out: tsFT210 IC50), 11.4 mg/L (≈ 19.9 µM); in experiment [4] it was 349 nM. In experiment [1], the “cancer cell growth-inhibiting activity (in words)” value is “high”.

Consider `CCCCC1CCC2(CCC(C)C(C/C=C(C)/C=C/C(O)C(C)/C=C/C(=O)O)O2)OC1/C=C/C(C)=C/C(=O)O` (centres unmarked) [RM-T], for which the IC50 in experiment [1] (HL-60, 48 h) was 0.2 mg/L (≈ 0.367 µM); in experiment [2] (setting [5]) it was 0.7 mg/L (≈ 1.29 µM); in experiment [3] (setting [6]), 0.4 mg/L (≈ 0.734 µM); in experiment [4], 0.367 nM. In experiment [1], the “cancer cell growth-inhibiting activity (in words)” value is listed as “higher”. Further, the “enzyme inhibiting activity against the target molecule IRS (in words)” value in experiment [4] (as compared with RM-A) is given as “higher”.

Values taken from patent US8980587B2, “Process for producing reveromycin A or a synthetic intermediate thereof, process for producing compounds containing a spiroketal ring and novel antineoplastics, fungicides and therapeutic agents for bone disorders” (RIKEN, priority 2010, dated 2015).
